Laboratory results published in the supplement of paper PMC10307832.

Key:
Assay in all cases: relative viability (nuclei count vs DMSO), 5 days (fraction); higher = more cells survive
AT9283 + Vorinostat = compound: O=C(Nc1c[nH]nc1-c1nc2ccc(CN3CCOCC3)cc2[nH]1)NC1CC1 [AT9283] + O=C(CCCCCCC(=O)Nc1ccccc1)NO [Vorinostat] (partner 1 µM)
How it was run: (§1)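 Lung cancer cell lines were seeded in 1536-well plates and dosed by pin tool the next day, with either a single drug or a fixed anchor-drug dose combined with five library-drug doses (not always all listed) spaced in √10 steps. Five days later, one step fixed the cells and stained their nuclei (final 0.05% Triton X-100, 1% formaldehyde, 1 ug/ml Hoechst), and nuclei were counted on 4× images. Relative viability is the nuclei count in treated wells divided by the count in vehicle wells, and each value is the median of duplicate plates.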

AT9283 + Crizotinib = compound: O=C(Nc1c[nH]nc1-c1nc2ccc(CN3CCOCC3)cc2[nH]1)NC1CC1 [AT9283] + C[C@@H](Oc1cc(-c2cnn(C3CCNCC3)c2)cnc1N)c1c(Cl)ccc(F)c1Cl [Crizotinib] (partner 1 µM)
How it was run: as §1

Erlotinib + Olaparib = compound: C#Cc1cccc(Nc2ncnc3cc(OCCOC)c(OCCOC)cc23)c1 [Erlotinib] + O=C(c1cc(Cc2n[nH]c(=O)c3ccccc23)ccc1F)N1CCN(C(=O)C2CC2)CC1 [Olaparib] (partner 8 µM)
How it was run: as §1

AT9283 + Linsitinib = compound: O=C(Nc1c[nH]nc1-c1nc2ccc(CN3CCOCC3)cc2[nH]1)NC1CC1 [AT9283] + C[C@]1(O)C[C@@H](c2nc(-c3ccc4ccc(-c5ccccc5)nc4c3)c3c(N)nccn32)C1 [Linsitinib] (partner 1 µM)
How it was run: as §1

AT9283 + Alpelisib = compound: O=C(Nc1c[nH]nc1-c1nc2ccc(CN3CCOCC3)cc2[nH]1)NC1CC1 [AT9283] + Cc1nc(NC(=O)N2CCC[C@H]2C(N)=O)sc1-c1ccnc(C(C)(C)C(F)(F)F)c1 [Alpelisib] (partner 2 µM)
How it was run: as §1

Cell Line	relative viability (AT9283 + Vorinostat; first compound 0.003 µM)	relative viability (AT9283 + Vorinostat; first compound 0.03 µM)	relative viability (AT9283 + Vorinostat; first compound 0.09487 µM)	relative viability (AT9283 + Vorinostat; first compound 0.3 µM)	relative viability (AT9283 + Crizotinib; first compound 0.003 µM)	relative viability (AT9283 + Crizotinib; first compound 0.03 µM)	relative viability (AT9283 + Crizotinib; first compound 0.09487 µM)	relative viability (AT9283 + Crizotinib; first compound 0.3 µM)	relative viability (Erlotinib + Olaparib; first compound 0.02 µM)	relative viability (Erlotinib + Olaparib; first compound 0.2 µM)	relative viability (Erlotinib + Olaparib; first compound 0.6325 µM)	relative viability (Erlotinib + Olaparib; first compound 2 µM)	relative viability (AT9283 + Linsitinib; first compound 0.003 µM)	relative viability (AT9283 + Linsitinib; first compound 0.03 µM)	relative viability (AT9283 + Linsitinib; first compound 0.09487 µM)	relative viability (AT9283 + Linsitinib; first compound 0.3 µM)	relative viability (AT9283 + Alpelisib; first compound 0.003 µM)	relative viability (AT9283 + Alpelisib; first compound 0.03 µM)	relative viability (AT9283 + Alpelisib; first compound 0.09487 µM)	relative viability (AT9283 + Alpelisib; first compound 0.3 µM)
NCI-H1355	0.602	0.452	0.388	0.169	1.03	0.992	0.529	0.199	0.796	0.709	0.684	0.558	0.807	0.649	0.273	0.167	0.855	0.898	0.443	0.182
NCI-H1437	0.833	0.469	0.312	0.295	1.04	0.732	0.443	0.243	0.638	0.646	0.607	0.612	1.06	0.691	0.181	0.158	0.997	0.88	0.571	0.155
NCI-H1651	0.449	0.39	0.393	0.218	0.856	0.897	0.505	0.411	0.171	0.188	0.173	0.145	1.05	0.864	0.348	0.357	1.01	0.921	0.689	0.399
NCI-H1666	1.18	0.769	0.527	0.606	1.08	0.777	0.377	0.311	0.787	0.793	0.676	0.645	0.964	0.779	0.265	0.355	1.04	0.736	0.363	0.291
NCI-H1734	0.757	0.305	0.259	0.237	0.725	0.335	0.246	0.216	0.61	0.588	0.583	0.545	0.85	0.583	0.288	0.294	0.696	0.497	0.283	0.292
NCI-H1755	0.74	0.784	0.54	0.398	0.891	0.718	0.433	0.385	0.942	0.892	0.888	0.818	0.996	0.847	0.516	0.404	0.996	0.874	0.35	0.381
NCI-H1915	0.489	0.466	0.175	0.152	0.842	0.826	0.226	0.255	0.25	0.264	0.25	0.222	1.06	1.01	0.529	0.239	1.01	1.06	0.24	0.222
NCI-H1944	0.532	0.274	0.214	0.205	0.9	0.648	0.257	0.294	0.396	0.311	0.382	0.304	1.17	0.973	0.528	0.331	0.792	0.621	0.255	0.275
NCI-H1975	0.742	0.666	0.504	0.281	0.945	0.903	0.695	0.348	0.818	0.712	0.888	0.695	0.932	0.769	0.341	0.223	0.637	0.624	0.5	0.247
NCI-H1993	0.806	0.435	0.375	0.363	0.915	0.654	0.572	0.543	0.91	0.606	0.748	0.658	0.788	0.686	0.61	0.588	0.789	0.612	0.552	0.515
NCI-H2009	0.742	0.674	0.29	0.147	0.967	0.446	0.26	0.248	0.783	0.73	0.792	0.627	1.21	0.704	0.315	0.323	1.13	1.05	0.734	0.401
NCI-H2023	0.527	0.344	0.149	0.144	0.704	0.471	0.196	0.123	0.46	0.43	0.54	0.432	0.765	0.308	0.135	0.132	0.634	0.501	0.34	0.131
NCI-H2085	0.775	0.755	0.631	0.305	0.865	0.693	0.471	0.328	0.754	0.768	0.655	0.619	0.847	0.687	0.245	0.214	0.946	0.894	0.615	0.411
NCI-H2087	1.01	0.158	0.179	0.126	0.795	0.554	0.401	0.326	0.622	0.576	0.576	0.469	1.08	0.542	0.339	0.245	1.22	0.658	0.259	0.165
NCI-H2126	0.729	0.552	0.486	0.249	0.943	1.02	0.69	0.465	0.872	0.851	0.729	0.718	0.685	0.758	0.714	0.276	0.722	0.788	0.501	0.323
